Tests used:
[1] = molecular target: T1, MMP-7FL (matrilysin full length enzyme) (Homo sapiens, UniProt P09237); experiment: MMP inhibition, thiopeptolide substrate, MMP-7FL; format: biochemical; conditions: thiopeptolide substrate Ac-Pro-Leu-Gly-thioester-Leu-Leu-Gly-OEt
T1 construct: MMP-7FL (matrilysin full length enzyme)
T1 sequence (P09237 95-267): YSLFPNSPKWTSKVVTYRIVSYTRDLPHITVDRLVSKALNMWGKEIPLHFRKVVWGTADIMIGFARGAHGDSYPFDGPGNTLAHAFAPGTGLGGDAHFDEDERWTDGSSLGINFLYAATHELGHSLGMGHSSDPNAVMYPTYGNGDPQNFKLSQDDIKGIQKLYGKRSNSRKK
Procedure: (§1) Experiments were carried out with the full-length and catalytic domains of the proteinases. […] IC50 values were determined using a thiopeptolide substrate, Ac-Pro-Leu-Gly-thioester-Leu-Leu-Gly-OEt (Ye Q.-Z., Johnson L. L., Hupe D. J., and Baragi V., “Purification and Characterization of the Human Stromelysin Catalytic Domain Expressed in Escherichia coli,” Biochemistry, 1992;31:11231-11235; Ye Q.-Z., Johnson L. L., Yu A. E., and Hupe D., “Reconstructed 19 kDa catalytic domain of gelatinase A is an active proteinase,” i Biochemistry, 1995;34:47024708.) MMP-13CD was expressed from a synthetic gene and purified from Escherichia coli cell culture according to a previously described method (Ye Q.-Z., Johnson L. L., and Baragi V., “Gene synthesis and expression in E. coli for PUMP, a human matrix metalloproteinase,” Biochemical and Biophysical Research Communications, 1992;186:143-149).

[2] = molecular target: MMP-2CD (gelatinase A catalytic domain) (Homo sapiens, UniProt P08253); experiment: MMP inhibition, thiopeptolide substrate, MMP-2CD; format: biochemical; conditions: thiopeptolide substrate Ac-Pro-Leu-Gly-thioester-Leu-Leu-Gly-OEt
Procedure: as §1

[3] = molecular target: T2, MMP-1FL (collagenase-1 full length enzyme) (Homo sapiens, UniProt P03956); experiment: MMP inhibition, thiopeptolide substrate, MMP-1FL; format: biochemical; conditions: thiopeptolide substrate Ac-Pro-Leu-Gly-thioester-Leu-Leu-Gly-OEt
T2 construct: MMP-IFL (collagenase-1 full length enzyme)
T2 sequence (P03956 100-469): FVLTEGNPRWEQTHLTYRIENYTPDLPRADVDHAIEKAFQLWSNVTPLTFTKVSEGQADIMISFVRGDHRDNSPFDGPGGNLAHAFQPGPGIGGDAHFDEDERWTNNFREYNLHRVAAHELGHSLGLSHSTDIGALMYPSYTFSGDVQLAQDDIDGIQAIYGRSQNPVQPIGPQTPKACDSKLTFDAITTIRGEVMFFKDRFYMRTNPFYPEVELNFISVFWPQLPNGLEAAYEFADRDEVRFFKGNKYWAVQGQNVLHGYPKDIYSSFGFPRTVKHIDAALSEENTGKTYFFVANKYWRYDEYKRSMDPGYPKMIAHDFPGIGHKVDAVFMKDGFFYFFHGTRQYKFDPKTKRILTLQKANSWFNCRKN
Procedure: as §1

[4] = molecular target: T3, MMP-9FL (gelatinase B full length enzyme) (Homo sapiens, UniProt P14780); experiment: MMP inhibition, thiopeptolide substrate, MMP-9FL; format: biochemical; conditions: thiopeptolide substrate Ac-Pro-Leu-Gly-thioester-Leu-Leu-Gly-OEt
T3 construct: MMP-9-FL (gelatinase B full length enzyme)
Procedure: as §1

[5] = molecular target: T4, MMP-13CD (collagenase-3 catalytic domain) (Homo sapiens, UniProt P45452); experiment: MMP inhibition, thiopeptolide substrate, MMP-13CD; format: biochemical; conditions: thiopeptolide substrate Ac-Pro-Leu-Gly-thioester-Leu-Leu-Gly-OEt; catalytic domain expressed in Escherichia coli
T4 construct: MMP-13CD (collagenase-3 catalytic domain); made in house; host or cells: Escherichia coli
Procedure: as §1

[6] = molecular target: T5, MMP-2FL (gelatinase A full length enzyme) (Homo sapiens, UniProt P08253); experiment: MMP inhibition, thiopeptolide substrate, MMP-2FL; format: biochemical; conditions: thiopeptolide substrate Ac-Pro-Leu-Gly-thioester-Leu-Leu-Gly-OEt
T5 construct: Experiments were carried out with the full-length and catalytic domains of the proteinases
T5 sequence (P08253 110-660): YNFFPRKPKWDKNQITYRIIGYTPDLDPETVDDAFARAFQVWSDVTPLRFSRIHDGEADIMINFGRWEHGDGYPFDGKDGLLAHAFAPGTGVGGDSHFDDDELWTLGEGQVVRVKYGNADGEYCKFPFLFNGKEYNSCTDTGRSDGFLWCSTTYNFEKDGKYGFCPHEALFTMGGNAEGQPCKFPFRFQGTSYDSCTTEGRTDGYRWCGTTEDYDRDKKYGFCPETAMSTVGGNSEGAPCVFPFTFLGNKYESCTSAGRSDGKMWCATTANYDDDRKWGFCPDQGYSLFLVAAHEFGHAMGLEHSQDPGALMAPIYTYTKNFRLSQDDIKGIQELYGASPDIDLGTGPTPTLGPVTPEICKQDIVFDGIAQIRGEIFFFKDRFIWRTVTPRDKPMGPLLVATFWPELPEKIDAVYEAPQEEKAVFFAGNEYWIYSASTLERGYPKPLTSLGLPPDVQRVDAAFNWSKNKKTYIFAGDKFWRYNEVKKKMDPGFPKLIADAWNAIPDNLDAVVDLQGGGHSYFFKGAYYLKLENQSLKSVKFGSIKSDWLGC
Procedure: as §1

[7] = molecular target: T6, MMP-3CD (stromelysin-1 catalytic domain) (Homo sapiens, UniProt P08254); experiment: MMP inhibition, thiopeptolide substrate, MMP-3CD; format: biochemical; conditions: thiopeptolide substrate Ac-Pro-Leu-Gly-thioester-Leu-Leu-Gly-OEt
T6 construct: MMP-3CD (stromelysin-1 catalytic domain)
Procedure: as §1

[8] = molecular target: MMP-14CD (membrane-type MMP-1) (Homo sapiens, UniProt P50281); experiment: MMP inhibition, thiopeptolide substrate, MMP-14CD; format: biochemical; conditions: thiopeptolide substrate Ac-Pro-Leu-Gly-thioester-Leu-Leu-Gly-OEt; catalytic domain
Procedure: as §1

T3 sequence (P14780 94-707): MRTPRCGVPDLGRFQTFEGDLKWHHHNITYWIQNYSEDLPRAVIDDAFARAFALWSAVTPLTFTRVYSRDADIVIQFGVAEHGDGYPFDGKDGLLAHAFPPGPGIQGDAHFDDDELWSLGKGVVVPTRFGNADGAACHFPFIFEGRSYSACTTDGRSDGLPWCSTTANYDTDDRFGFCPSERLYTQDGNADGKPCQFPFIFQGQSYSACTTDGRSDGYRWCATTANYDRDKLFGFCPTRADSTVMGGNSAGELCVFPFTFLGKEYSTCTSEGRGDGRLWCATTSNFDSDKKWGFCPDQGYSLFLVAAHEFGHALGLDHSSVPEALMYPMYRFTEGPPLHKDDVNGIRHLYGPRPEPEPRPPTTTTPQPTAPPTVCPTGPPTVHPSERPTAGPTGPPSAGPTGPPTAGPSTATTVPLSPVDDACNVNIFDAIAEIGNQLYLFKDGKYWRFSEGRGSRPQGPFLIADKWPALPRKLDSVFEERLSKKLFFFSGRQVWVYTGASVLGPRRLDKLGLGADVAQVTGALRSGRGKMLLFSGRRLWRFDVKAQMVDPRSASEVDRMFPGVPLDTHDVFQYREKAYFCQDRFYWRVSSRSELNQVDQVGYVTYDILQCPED
T6 sequence (P08254 100-272 limits assumed): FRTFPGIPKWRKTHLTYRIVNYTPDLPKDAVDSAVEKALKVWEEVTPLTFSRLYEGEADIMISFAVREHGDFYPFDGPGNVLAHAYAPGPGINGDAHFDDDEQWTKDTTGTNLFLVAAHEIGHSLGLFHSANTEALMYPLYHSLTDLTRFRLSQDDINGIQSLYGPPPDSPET
Chain of MMP-2CD (gelatinase A catalytic domain) (P08253 with tags, fused parts or gaps DEL222-396): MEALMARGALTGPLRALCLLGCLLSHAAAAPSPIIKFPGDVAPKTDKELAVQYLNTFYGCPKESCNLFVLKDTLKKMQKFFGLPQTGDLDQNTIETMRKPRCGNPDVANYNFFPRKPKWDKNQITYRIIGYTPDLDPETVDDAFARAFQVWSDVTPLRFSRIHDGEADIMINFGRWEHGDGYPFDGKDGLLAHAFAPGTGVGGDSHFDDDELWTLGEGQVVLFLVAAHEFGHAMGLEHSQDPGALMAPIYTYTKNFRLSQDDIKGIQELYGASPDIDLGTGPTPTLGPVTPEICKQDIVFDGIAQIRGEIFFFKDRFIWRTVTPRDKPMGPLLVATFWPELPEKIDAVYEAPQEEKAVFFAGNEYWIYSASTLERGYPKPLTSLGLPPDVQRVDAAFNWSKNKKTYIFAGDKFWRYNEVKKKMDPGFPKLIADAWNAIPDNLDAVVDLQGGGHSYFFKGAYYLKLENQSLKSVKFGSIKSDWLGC

IC50 [1] | IC50 [2] | IC50 [3] | IC50 [4] | IC50 [5] | IC50 [6] | IC50 [7] | IC50 [8] | melting point | SMILES
82 µM | 0.037 µM | 6.7 µM | 30 µM | 3.45 µM | 0.335 µM | 0.046 µM | 0.38 µM | – | CC(C)[C@@H](NS(=O)(=O)c1ccc2c3c(oc2c1)CCCC3)C(=O)O [Example 1, (R) 3-Methyl-2-(6,7,8,9-tetrahydro-dibenzofuran-3-sulfonylamino)-butyric Acid]
7.5 µM | 0.034 µM | 6.05 µM | 100 µM | 2.3 µM | 0.43 µM | 0.0245 µM | 0.155 µM | 162 to 165 °C | CC(C)[C@H](NS(=O)(=O)c1ccc2c3c(oc2c1)CCCC3)C(=O)O [Example 2, (S) 3-Methyl-2-(6,7,8,9-tetrahydro-dibenzofuran-3-sulfonylamino)-butyric Acid]
3.2 µM | 0.0167 µM | 16 µM | 100 µM | 0.97 µM | 0.45 µM | 0.0056 µM | 0.048 µM | 176 to 179 °C | O=C(O)C[C@H](NS(=O)(=O)c1ccc2c3c(oc2c1)CCCC3)C(=O)O [Example 3, (S) 2-(6,7,8,9-Tetrahydro-dibenzofuran-3-sulfonylamino)-succinic Acid]
2.3 µM | 0.018 µM | 25 µM | 28 µM | 1.34 µM | 0.15 µM | 0.0215 µM | 0.064 µM | 167 to 169 °C | O=C(O)[C@H](CCc1ccccc1)NS(=O)(=O)c1ccc2c3c(oc2c1)CCCC3 [Example 4, (S) 4-Phenyl-2-(6,7,8,9-tetrahydro-dibenzofuran-3-sulfonylamino)-butyric Acid]
